The numbers were not newly measured in patent US20080226713A1, “Controlled Release Pharmaceutical Compositions of Tolperisone for Oral Administration” (priority 2004, published 2008), which cites them from elsewhere.

Read-outs that look alike come from different tables or passages of the source.

For data set [1] the following is noted: JP-A-53-40779.
The conditions of data set [2]: rat.

Take `Cc1ccc(C(=O)C(C)CN2CCCCC2)cc1` (stereo not drawn) [R(−)tolperisone]: the pharmacological effect entry in data set [1] (listed as R-tolperisone) is “muscle-relaxing effect”.
Consider `Cc1ccc(C(=O)C(C)CN2CCCCC2)cc1` (stereo not drawn) [S(+)tolperisone], for which the pharmacological effect entry in data set [1] (listed as S-tolperisone) is given as “vaso- or bronchodilatory effect”. In data set [2], the “extent of in-vivo inversion into the other enantiomer” value is given as “up to 20%”.
